{"source": "ChEMBL document CHEMBL1142765", "about": "“Discodermolide analogues as the chemical component of combination bacteriolytic therapy” (Bioorg Med Chem Lett, 2005)", "type_in_all_cases": "functional, organism-based", "details_in_all_cases": "Homo sapiens", "key": {"MCF7": {"tested_on": "MCF7", "experiment": "Inhibitory concentration […] exhibited against MCF-7 cell line […]"}, "A549": {"tested_on": "A549", "experiment": "Inhibitory concentration […] exhibited against A549 cell line […]"}, "SK-OV-3": {"tested_on": "SK-OV-3", "experiment": "Inhibitory concentration […] exhibited against SKOV3 cell line […]"}}}
{"smiles": "C=C/C=C\\[C@H](C)[C@H](OC(N)=O)[C@@H](C)[C@H](O)[C@@H](C)C/C(C)=C\\[C@H](C)[C@@H](O)[C@@H](C)/C=C\\[C@@H](O)C[C@@H]1OC(=O)C(C)=C[C@H]1C", "values": [{"measurement": "IC50", "setting": "MCF7", "result": 0.0056, "unit": "µM"}, {"measurement": "IC50", "setting": "A549", "result": 0.0086, "unit": "µM"}, {"measurement": "IC50", "setting": "SK-OV-3", "result": 0.0034, "unit": "µM"}]}
{"smiles": "C=C/C=C\\[C@H](C)[C@H](OC(N)=O)[C@@H](C)[C@H](O)[C@@H](C)C/C=C\\[C@H](C)[C@@H](O)[C@@H](C)/C=C\\[C@@H](O)C[C@@H]1OC(=O)[C@H](C)[C@@H](O)[C@H]1C", "values": [{"measurement": "IC50", "setting": "MCF7", "result": 0.046, "unit": "µM"}, {"measurement": "IC50", "setting": "A549", "result": 0.05, "unit": "µM"}, {"measurement": "IC50", "setting": "SK-OV-3", "result": 0.035, "unit": "µM"}]}
{"smiles": "C=C/C=C\\[C@H](C)[C@H](OC(N)=O)[C@@H](C)[C@H](O)[C@@H](C)C/C(C)=C\\[C@H](C)[C@@H](O)[C@@H](C)/C=C\\[C@@H](O)C[C@@H]1OC(=O)C=C[C@H]1C", "values": [{"measurement": "IC50", "setting": "MCF7", "result": 0.0021, "unit": "µM"}, {"measurement": "IC50", "setting": "A549", "result": 0.0037, "unit": "µM"}, {"measurement": "IC50", "setting": "SK-OV-3", "result": 0.0034, "unit": "µM"}]}
{"smiles": "C=C/C=C\\[C@H](C)[C@H](OC(N)=O)[C@@H](C)[C@H](O)[C@@H](C)C/C(C)=C\\[C@H](C)[C@@H](O)[C@@H](C)/C=C\\[C@@H](O)C[C@@H]1OC(=O)[C@H](C)[C@@H](O)[C@H]1C", "note": "[DISERMOLIDE]", "values": [{"measurement": "IC50", "setting": "MCF7", "result": 0.028, "unit": "µM"}, {"measurement": "IC50", "setting": "A549", "result": 0.022, "unit": "µM"}, {"measurement": "IC50", "setting": "SK-OV-3", "result": 0.021, "unit": "µM"}]}
